The source of these data is article PMC6008489 (Bioorganic & Medicinal Chemistry, 2018).

Common to all, as to type: biochemical
In one assay the target is T1, SRC (Homo sapiens, UniProt P12931).
T1 construct: purchased Perkin Elmer (ProfilerPro assay kit 1)
The assay can be described thus: 26-kinase panel mobility shift assay, single concentration. To be noted: read-out: % Inhibition SRC.

For another assay, the target named is T2, CHK1 (Homo sapiens, UniProt O14757).
T2 construct: purchased Perkin Elmer ProfilerPro assay kit 1
T2 sequence (O14757 1-476): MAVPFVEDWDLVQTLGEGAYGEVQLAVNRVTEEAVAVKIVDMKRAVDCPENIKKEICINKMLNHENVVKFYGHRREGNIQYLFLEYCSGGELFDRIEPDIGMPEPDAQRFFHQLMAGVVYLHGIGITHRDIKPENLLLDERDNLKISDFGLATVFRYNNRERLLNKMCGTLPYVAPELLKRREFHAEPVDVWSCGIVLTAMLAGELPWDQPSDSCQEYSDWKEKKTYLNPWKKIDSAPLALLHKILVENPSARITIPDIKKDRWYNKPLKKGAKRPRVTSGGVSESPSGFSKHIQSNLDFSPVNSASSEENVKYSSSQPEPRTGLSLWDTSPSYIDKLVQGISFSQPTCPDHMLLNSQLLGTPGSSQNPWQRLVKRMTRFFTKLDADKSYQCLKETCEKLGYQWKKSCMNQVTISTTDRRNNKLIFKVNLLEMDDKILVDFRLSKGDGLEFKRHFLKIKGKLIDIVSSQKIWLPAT
The assay is described as above. The note with it: read-out: % Inhibition CHK1.

The target of another assay is T3, PKCζ (Homo sapiens, UniProt Q05513).
T3 construct: purchased Perkin Elmer (ProfilerPro assay kit 1)
T3 sequence (Q05513 1-592): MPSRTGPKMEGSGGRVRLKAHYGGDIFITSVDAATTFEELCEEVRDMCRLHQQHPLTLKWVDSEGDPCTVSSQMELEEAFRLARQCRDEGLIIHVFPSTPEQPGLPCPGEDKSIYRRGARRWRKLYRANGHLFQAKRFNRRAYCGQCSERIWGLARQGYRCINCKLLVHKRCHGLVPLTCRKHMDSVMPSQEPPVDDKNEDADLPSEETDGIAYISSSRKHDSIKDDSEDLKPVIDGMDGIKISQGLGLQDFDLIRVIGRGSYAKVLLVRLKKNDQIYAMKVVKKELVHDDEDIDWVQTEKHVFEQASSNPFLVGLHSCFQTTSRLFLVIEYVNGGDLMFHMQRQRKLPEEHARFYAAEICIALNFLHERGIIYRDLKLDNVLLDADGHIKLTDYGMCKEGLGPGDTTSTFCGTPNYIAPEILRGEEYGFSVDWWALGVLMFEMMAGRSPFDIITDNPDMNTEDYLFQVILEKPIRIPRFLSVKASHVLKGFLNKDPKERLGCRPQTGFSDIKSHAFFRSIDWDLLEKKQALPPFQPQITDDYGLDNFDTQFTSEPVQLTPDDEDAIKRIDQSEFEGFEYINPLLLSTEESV
The description is as above. The note with it: read-out: % Inhibition PKC.

The target of another assay is T4, LYN (Homo sapiens, UniProt P07948).
T4 construct: purchased Perkin Elmer (ProfilerPro assay kit 1)
The assay is described as above. The note with it: read-out: % Inhibition LYN.

The next assay deals with T5, p38 (Homo sapiens, UniProt Q16539).
T5 construct: purchased Perkin Elmer (ProfilerPro assay kit 1)
The assay is described as above. The note with it: read-out: % Inhibition p38.

The target of a further assay is T6, CK1d (Homo sapiens, UniProt P48730).
T6 construct: purchased Perkin Elmer (ProfilerPro assay kit 1)
Described as above. To be noted: read-out: % Inhibition CK1d.

A further assay deals with T7, AurA (Homo sapiens, UniProt O14965).
T7 construct: purchased Perkin Elmer (ProfilerPro assay kit 1)
T7 sequence (O14965 1-403): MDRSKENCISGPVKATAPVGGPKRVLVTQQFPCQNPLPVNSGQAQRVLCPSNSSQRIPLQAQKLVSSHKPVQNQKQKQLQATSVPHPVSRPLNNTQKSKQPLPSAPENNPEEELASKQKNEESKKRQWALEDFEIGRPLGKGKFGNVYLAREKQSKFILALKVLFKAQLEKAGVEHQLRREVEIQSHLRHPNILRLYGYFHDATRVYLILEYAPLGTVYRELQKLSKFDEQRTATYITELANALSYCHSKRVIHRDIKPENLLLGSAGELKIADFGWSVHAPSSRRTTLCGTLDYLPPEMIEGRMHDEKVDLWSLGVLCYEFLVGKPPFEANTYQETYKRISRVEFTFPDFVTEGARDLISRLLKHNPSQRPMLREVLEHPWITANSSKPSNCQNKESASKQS
The assay is described as above. To be noted: read-out: % Inhibition AurA.

The target of a further assay is T8, AKT1 (Homo sapiens, UniProt P31749).
T8 construct: purchased Perkin Elmer ProfilerPro assay kit 1
Described as above. The note with it: read-out: % Inhibition AKT1.

A further assay has as its target T9, CHK2 (Homo sapiens, UniProt O96017).
T9 construct: purchased Perkin Elmer (ProfilerPro assay kit 1)
The description is as above. To be noted: read-out: % Inhibition CHK2.

Another assay deals with T10, Erk1 (Homo sapiens, UniProt P27361).
T10 construct: purchased Perkin Elmer (ProfilerPro assay kit 1)
The description is as above. The note with it: read-out: % Inhibition Erk1.

The next assay concerns the target T11, GSK3b (Homo sapiens, UniProt P49841).
T11 construct: purchased Perkin Elmer (ProfilerPro assay kit 1)
The description is as above. To be noted: read-out: % Inhibition GSK3.

The target in another assay is T12, INSR (Homo sapiens, UniProt P06213).
T12 construct: purchased Perkin Elmer (ProfilerPro assay kit 1)
Described as above. To be noted: read-out: % Inhibition INSR.

The target in another assay is T13, Aurora A (Homo sapiens, UniProt O14965).
T13 sequence (O14965 1-403): T7 sequence (O14965 1-403)
To be noted: for Ki: calculated from mean IC50 using the Cheng-Prusoff equation, read-out: AurA Ki; for AurA ligand efficiency (LE): from Ki.

A further assay deals with T14, LCK (Homo sapiens, UniProt P06239).
T14 construct: purchased Perkin Elmer (ProfilerPro assay kit 1)
The assay can be described thus: 26-kinase panel mobility shift assay, single concentration. The note with it: read-out: % Inhibition LCK.

The next assay concerns the target T15, PRAK (Homo sapiens, UniProt Q8IW41).
T15 construct: purchased Perkin Elmer (ProfilerPro assay kit 1)
T15 sequence (Q8IW41 1-473): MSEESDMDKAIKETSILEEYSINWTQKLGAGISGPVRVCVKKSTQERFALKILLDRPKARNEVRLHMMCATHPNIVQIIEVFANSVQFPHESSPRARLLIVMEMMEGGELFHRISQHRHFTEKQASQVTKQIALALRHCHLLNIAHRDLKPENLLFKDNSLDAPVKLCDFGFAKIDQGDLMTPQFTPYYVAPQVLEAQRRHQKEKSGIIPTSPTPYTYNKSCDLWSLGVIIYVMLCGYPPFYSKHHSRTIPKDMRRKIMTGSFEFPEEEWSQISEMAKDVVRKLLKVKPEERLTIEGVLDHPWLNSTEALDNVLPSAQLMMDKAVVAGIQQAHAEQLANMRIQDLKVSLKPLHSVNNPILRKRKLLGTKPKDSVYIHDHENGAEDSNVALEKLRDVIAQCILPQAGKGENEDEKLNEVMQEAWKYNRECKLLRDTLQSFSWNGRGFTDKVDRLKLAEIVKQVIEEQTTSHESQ
Described as above. To be noted: read-out: % Inhibition PRAK.

T8 sequence (P31749 whole entry): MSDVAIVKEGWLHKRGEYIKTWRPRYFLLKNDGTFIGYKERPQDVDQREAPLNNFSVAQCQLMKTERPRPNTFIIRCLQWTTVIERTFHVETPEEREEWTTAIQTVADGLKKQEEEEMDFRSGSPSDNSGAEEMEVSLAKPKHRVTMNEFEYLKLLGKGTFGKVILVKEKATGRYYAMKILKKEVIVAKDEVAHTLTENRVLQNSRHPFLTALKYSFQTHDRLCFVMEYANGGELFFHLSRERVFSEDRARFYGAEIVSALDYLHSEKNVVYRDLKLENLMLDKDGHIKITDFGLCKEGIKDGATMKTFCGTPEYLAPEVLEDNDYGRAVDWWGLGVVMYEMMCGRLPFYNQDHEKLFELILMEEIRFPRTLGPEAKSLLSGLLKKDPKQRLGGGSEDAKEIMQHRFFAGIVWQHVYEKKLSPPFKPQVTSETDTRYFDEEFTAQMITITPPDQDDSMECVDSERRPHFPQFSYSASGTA
T1 sequence (P12931 whole entry): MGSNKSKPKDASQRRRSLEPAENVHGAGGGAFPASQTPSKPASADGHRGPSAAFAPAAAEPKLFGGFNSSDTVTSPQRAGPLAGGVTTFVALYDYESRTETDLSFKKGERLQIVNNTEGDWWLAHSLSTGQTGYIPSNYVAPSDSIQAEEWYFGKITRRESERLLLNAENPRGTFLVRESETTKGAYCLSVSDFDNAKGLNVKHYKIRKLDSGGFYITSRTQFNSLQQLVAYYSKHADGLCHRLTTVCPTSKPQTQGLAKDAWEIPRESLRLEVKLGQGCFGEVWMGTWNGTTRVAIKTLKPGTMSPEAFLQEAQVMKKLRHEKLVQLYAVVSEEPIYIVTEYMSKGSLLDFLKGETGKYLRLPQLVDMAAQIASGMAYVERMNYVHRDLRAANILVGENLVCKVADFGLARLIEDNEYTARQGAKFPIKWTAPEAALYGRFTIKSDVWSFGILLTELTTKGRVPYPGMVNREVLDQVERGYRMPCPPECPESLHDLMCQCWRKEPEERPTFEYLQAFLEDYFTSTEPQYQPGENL
T4 sequence (P07948 whole entry): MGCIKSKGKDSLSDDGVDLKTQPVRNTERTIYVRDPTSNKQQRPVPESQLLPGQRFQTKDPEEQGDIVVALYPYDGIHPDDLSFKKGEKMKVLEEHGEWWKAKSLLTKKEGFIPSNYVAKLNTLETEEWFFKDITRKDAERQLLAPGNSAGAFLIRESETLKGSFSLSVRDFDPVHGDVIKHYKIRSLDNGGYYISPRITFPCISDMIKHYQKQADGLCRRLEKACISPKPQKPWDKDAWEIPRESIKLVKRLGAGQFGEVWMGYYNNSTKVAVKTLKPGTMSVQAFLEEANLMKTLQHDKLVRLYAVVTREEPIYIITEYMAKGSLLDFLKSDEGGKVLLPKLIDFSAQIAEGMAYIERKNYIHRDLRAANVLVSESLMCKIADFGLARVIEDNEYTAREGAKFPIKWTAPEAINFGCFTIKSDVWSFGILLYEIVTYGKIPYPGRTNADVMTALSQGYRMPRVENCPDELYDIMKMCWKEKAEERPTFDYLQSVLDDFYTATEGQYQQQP
T6 sequence (P48730 whole entry): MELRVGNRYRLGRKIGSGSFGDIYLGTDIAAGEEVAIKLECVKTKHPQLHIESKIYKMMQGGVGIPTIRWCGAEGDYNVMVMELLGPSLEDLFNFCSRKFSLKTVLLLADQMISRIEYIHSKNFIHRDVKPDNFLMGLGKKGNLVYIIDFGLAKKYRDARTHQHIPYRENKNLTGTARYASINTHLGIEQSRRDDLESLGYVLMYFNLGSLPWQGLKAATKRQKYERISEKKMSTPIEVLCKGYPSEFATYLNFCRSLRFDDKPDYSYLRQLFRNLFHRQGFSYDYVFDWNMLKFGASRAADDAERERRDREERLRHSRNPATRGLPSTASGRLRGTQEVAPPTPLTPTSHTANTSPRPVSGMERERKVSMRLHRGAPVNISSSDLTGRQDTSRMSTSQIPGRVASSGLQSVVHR
T9 sequence (O96017 whole entry): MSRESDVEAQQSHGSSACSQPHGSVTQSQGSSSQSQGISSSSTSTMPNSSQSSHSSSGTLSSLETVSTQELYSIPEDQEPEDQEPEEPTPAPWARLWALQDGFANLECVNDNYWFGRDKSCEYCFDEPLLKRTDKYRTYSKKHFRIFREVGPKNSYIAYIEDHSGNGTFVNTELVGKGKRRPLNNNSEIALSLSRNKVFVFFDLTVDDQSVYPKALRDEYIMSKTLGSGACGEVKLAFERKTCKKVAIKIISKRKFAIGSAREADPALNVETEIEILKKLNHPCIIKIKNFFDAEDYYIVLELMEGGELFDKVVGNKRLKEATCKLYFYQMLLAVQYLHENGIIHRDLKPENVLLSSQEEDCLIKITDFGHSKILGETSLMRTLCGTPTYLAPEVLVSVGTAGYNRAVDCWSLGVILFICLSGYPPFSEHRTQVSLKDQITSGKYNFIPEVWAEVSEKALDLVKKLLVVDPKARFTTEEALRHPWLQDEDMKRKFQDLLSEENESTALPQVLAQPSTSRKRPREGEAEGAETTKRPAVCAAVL
T14 sequence (P06239 whole entry): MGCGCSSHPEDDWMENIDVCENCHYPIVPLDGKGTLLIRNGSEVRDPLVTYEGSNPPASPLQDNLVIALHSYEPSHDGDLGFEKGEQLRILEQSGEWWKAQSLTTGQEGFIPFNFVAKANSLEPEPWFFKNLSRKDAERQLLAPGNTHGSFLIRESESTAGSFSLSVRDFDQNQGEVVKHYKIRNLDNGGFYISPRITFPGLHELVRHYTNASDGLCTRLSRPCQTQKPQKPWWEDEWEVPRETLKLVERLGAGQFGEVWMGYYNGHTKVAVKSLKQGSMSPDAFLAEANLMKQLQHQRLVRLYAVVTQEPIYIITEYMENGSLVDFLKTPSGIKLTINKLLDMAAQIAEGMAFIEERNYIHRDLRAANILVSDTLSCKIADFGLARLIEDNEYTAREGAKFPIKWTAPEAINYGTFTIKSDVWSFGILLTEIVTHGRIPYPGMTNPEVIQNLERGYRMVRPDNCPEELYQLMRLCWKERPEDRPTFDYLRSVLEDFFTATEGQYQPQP
T11 sequence (P49841 whole entry): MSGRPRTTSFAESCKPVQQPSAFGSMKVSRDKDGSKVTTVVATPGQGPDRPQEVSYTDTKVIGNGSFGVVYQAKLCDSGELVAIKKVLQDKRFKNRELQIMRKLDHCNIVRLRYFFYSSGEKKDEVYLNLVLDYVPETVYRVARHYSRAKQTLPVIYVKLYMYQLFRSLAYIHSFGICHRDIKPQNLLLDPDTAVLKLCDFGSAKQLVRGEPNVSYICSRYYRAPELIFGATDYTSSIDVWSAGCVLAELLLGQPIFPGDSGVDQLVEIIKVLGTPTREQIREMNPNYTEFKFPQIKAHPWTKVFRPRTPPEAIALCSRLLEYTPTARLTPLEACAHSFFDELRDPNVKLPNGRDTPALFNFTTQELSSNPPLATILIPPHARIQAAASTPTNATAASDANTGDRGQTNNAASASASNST
T5 sequence (Q16539 whole entry): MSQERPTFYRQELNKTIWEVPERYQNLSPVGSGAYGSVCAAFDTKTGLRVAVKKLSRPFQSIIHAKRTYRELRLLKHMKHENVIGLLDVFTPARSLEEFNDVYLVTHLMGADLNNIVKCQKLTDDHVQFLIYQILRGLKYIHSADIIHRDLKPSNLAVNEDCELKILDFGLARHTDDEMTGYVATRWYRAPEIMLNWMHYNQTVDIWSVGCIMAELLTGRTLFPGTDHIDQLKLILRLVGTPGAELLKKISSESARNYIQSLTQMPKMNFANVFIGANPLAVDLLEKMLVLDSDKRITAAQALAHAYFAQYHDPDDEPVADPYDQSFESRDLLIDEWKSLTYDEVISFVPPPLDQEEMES
T10 sequence (P27361 whole entry): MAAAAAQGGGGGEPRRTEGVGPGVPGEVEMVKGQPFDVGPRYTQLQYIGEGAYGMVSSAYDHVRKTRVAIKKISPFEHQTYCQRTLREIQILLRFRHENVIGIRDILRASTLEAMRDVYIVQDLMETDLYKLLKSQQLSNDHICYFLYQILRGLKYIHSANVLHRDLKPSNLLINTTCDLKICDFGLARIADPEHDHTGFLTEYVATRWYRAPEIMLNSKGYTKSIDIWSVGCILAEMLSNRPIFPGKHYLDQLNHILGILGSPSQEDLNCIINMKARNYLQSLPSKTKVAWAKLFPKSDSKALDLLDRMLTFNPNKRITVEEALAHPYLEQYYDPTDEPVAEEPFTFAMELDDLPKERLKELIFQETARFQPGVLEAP
Method for AKT1: Mobility Shift Assay Protocol
(§1) Screening of 26 kinases using a mobility shift assay
(§2) A mobility shift assay to determine kinase inhibition was carried out using a
(§3) modified version of the ProfilerPro assay kit 1 (Perkin Elmer, Coventry, UK)
(§4) including MPS1 and Aurora B. Each kit contained an enzyme plate, a substrate
(§5) plate, reconstitution buffer, 1 M DTT, protease inhibitor cocktail and termination
(§6) buffer. Test compounds were added as a solution in DMSO.
(§7) peptide phosphorylation assay was carried out as per the manufacturer’s
(§8) instructions. The electrophoretic separation and analysis of the phosphorylated
(§9) and non-phosphorylated peptides was carried out on a 4-sipper chip using a
(§10) LabChip EZReader II (Perkin Elmer). Results were expressed as % inhibition of
(§11) peptide phosphorylation relative to control wells for 0 % (no test compound) and
(§12) 100 % (no ATP) inhibition. The percentage inhibition was calculated using the
(§13) % Inhibition = [1 - (% Conversion Sample / % Conversion 0% Inhibition Control)] x 100
Method for AurA: Mobility Shift Assay Protocol
as §1, §2, §3, §4, §5, §6, §7, §8, §9, §10, §11, §12, §13
Method for Aurora A: IC50 values were obtained for an expanded version of the fragment library using the previously described mobility shift assay.[44] Subsequently, Ki values were estimated from IC50 values to allow better comparison of the activity against targets which were measured at different substrate concentrations (Supplementary data Table 1).
IC50 values for MPS1, Aurora A and Aurora B inhibition were determined as previously described,[44] and Ki values were estimated from the mean IC50 values using the Cheng-Prusoff equation.[48]
Kinase [ATP] (M) [Enzyme] (nM) [Peptide Substrate] (M) MgCl2 (mM)
For all compounds, IC50 values for MPS1, Aurora A, and Aurora B were determined
using MPS1 and Aurora A/B mobility shift assays as described previously.1 IC50
values were calculated from a four-parameter logistic fit of percentage inhibition
versus concentration (at 8 compound concentrations) using GraphPad Prism 5
(GraphPad Software, Inc., CA, USA). Mean IC50 values were determined from two
independent measurements each carried out in duplicate. Ki values were estimated
from the mean IC50 values using the Cheng-Prusoff equation.
Method for CHK1: as §2, §3, §4, §5, §6, §7, §8, §9, §10, §11, §12, §13
Method for CHK2: as §2, §3, §4, §5, §6, §7, §8, §9, §10, §11, §12, §13
Method for CK1d: as §2, §3, §4, §5, §6, §7, §8, §9, §10, §11, §12, §13
Method for Erk1: as §2, §3, §4, §5, §6, §7, §8, §9, §10, §11, §12, §13
Method for GSK3b: as §2, §3, §4, §5, §6, §7, §8, §9, §10, §11, §12, §13
Method for INSR: (§14) In order to test the biochemical activity of our fragment library, a panel of 26 structurally diverse protein kinases was used.
as §1, §2, §3, §4, §5, §6, §7, §8, §9, §10, §11, §12, §13
Method for LCK: as §2, §3, §4, §5, §6, §7, §8, §9, §10, §11, §12, §13
Method for LYN: as §2, §3, §4, §5, §6, §7, §8, §9, §10, §11, §12, §13
Method for PKCζ: as §14
Mobility Shift Assay Protocol
as §1, §2, §3, §4, §5, §6
final concentration. […] The
as §7, §8, §9, §10, §11, §12, §13
Method for PRAK: as §2, §3, §4, §5, §6
final concentration. […] The
as §7, §8, §9, §10, §11, §12, §13
Method for SRC: as §14, §1, §2, §3, §4, §5, §6, §7, §8, §9, §10, §11, §12, §13
Method for p38: as §14
Mobility Shift Assay Protocol
as §1, §2, §3, §4, §5, §6
final concentration. […] The
as §7, §8, §9, §10, §11, §12, §13

A word on the inhibition: it is the drop in the measured response relative to a control, in per cent. Usually Ki stands for the equilibrium dissociation constant of an inhibitor or competing ligand from its target. On to `CNc1nccc(-c2c[nH]c(=O)c(N)c2)n1` [Compound 7], for which the inhibition at 100 µM on SRC amounted to 89%; at CHK1 it was 79%; on PKCζ it was 37%; on LYN, 63%; at p38 it was 25%; at CK1d, 79%. Moreover, the inhibition at 100 µM on AurA came to 98%; on AKT1 it was 89%; at CHK2, 98%; on Erk1, 52%; on GSK3b it was 89%; on INSR it was 80%. Besides, the figures for the inhibition at 100 µM at LCK and at PRAK were 55% and 88%, respectively. Moreover, the Ki at Aurora A is 21.3 µM. In addition, at Aurora A, the “AurA ligand efficiency (LE)” value is listed as 0.40.
For the compound `CN1CCN(c2ccc(C(=O)Nc3cc(-c4ccncc4)c[nH]c3=O)cc2)CC1` [Compound 22], the inhibition at 30 µM is 98% on SRC; 84% on CHK1; 24% on PKCζ; 93% at LYN; 6% at p38; 31% at CK1d. The inhibition at 30 µM turned out to be 92% at AurA; 13% at AKT1; 33% on CHK2; 0% on Erk1; 94% at GSK3b; 30% at INSR. Further, the figures for the inhibition at 30 µM at LCK and on PRAK were 97% and 10%, respectively. Also, on Aurora A, the Ki is 14.9 µM. The “AurA ligand efficiency (LE)” value at Aurora A stood at 0.23.
As for `Nc1cc(-c2ccnc(NC3CC3)n2)c[nH]c1=O` [Compound 8], the inhibition at 100 µM was 46% at SRC; 26% on CHK1; 0% on PKCζ; 42% on LYN; 12% at p38; 63% at CK1d. Moreover, the inhibition at 100 µM was 87% on AurA; 18% at AKT1; 61% at CHK2; 46% at Erk1; 87% on GSK3b; 27% at INSR. The values for the inhibition at 100 µM on LCK and at PRAK were 38% and 24%, respectively. For the same compound, the Ki at Aurora A is 30.2 µM. The “AurA ligand efficiency (LE)” value at Aurora A is on record as 0.34.
